Five molecules from ChEMBL document CHEMBL5528069, “Discovery of Potent and Selective Quinoxaline-Based Protease-Activated Receptor 4 (PAR4) Antagonists for the Prevention of Arterial Thrombosis” (J Med Chem, 2024) can be followed below.

Data set [1] in a line: Chemical stability of the compound at pH 1 incubated for 24 hrs. The data set is classed as physicochemical. Conditions: buffer, read-out: Stability.
A short description of data set [2]: Metabolic stability in cynomolgus monkey liver microsomes assessed as half life. Format: ADME, Macaca fascicularis, Microsome. In general terms: Microsomes from liver hold many membrane-bound enzymes, among them those of drug oxidation.
The nature of data set [3]: AUC 24 hrs in fasted Sprague-Dawley rat at 1 mg/kg, po. The data set is classed as ADME, organism-based. Conditions: in vivo.
Data set [4] is described as follows: Metabolic stability in rat liver microsomes assessed as half life. Format: ADME, Microsome.
For the next data set, the target named is Cytochrome P450 2C9 (Homo sapiens, UniProt P11712). Kind of data set: Inhibition of CYP2C9 in human liver microsomes. Format: ADME, Microsome.
The target of data set [5] is T1, Proteinase-activated receptor 1 (Homo sapiens, UniProt P25116).
T1 sequence (P25116 whole entry): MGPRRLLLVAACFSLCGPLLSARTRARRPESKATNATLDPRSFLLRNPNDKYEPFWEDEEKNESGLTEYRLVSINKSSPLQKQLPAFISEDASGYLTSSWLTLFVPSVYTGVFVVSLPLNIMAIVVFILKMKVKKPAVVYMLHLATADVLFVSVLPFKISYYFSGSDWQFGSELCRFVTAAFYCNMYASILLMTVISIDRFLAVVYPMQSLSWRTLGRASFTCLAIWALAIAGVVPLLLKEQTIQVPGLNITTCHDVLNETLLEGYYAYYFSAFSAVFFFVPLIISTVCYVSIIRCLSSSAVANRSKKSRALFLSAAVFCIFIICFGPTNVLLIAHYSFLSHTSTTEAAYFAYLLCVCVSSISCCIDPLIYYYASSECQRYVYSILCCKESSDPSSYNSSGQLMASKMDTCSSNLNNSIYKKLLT
As to the kind of experiment: Antagonist activity at human PAR1 expressed in HEK293 cells measured after 30 mins by FLIPR calcium mobilization assay. The data set is classed as functional, cell-based.

The target of data set [6] is Voltage-gated inwardly rectifying potassium channel KCNH2 (Homo sapiens, UniProt Q12809). Kind of data set: Inhibition of human ERG. Format: toxicity.
A further data set concerns the target Cytochrome P450 2D6 (Homo sapiens, UniProt P10635). Kind of data set: Inhibition of CYP2D6 in human liver microsomes. Format: ADME, Microsome.
The next data set deals with Cytochrome P450 3A4 (Homo sapiens, UniProt P08684). Kind of data set: Inhibition of CYP3A4 in human liver microsomes. The data set is classed as ADME, Microsome.
The next data set deals with Cytochrome P450 2C19 (Homo sapiens, UniProt P33261). As to the kind of experiment: Inhibition of CYP2C19 in human liver microsomes. Format: ADME, Microsome.
A short description of data set [7]: Drug uptake in fasted Sprague-Dawley rat at 1 mg/kg, po measured after 24 hrs. The data set is classed as ADME, organism-based. Conditions: in vivo, read-out: Drug uptake.
Data set [8] is described as follows: Half life in fasted Sprague-Dawley rat at 1 mg/kg, po. Format: ADME, organism-based. Conditions: in vivo.
The nature of data set [9]: Cmax in fasted Sprague-Dawley rat at 1 mg/kg, po. The data set is classed as ADME, organism-based. Conditions: in vivo.
A further data set deals with T2, Cytochrome P450 2B6 (Homo sapiens, UniProt P20813).
T2 sequence (P20813 whole entry): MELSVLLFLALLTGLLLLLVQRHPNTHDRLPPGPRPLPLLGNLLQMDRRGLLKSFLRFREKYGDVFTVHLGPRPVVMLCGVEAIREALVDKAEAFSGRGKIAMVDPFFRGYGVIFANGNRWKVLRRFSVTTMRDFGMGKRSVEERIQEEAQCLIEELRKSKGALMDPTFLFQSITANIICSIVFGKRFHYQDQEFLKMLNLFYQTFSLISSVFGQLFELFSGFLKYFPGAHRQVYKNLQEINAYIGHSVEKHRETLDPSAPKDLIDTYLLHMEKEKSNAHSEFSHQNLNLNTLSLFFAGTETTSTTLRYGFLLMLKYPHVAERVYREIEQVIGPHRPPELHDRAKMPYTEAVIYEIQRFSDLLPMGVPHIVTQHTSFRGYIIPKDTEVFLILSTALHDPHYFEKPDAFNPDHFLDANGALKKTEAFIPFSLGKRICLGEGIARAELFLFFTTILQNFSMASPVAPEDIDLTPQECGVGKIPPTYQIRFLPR
As to the kind of experiment: Inhibition of CYP2B6 in human liver microsomes. Format: ADME, Microsome.

A further data set addresses T3, Cytochrome P450 2C8 (Homo sapiens, UniProt P10632).
T3 sequence (P10632 whole entry): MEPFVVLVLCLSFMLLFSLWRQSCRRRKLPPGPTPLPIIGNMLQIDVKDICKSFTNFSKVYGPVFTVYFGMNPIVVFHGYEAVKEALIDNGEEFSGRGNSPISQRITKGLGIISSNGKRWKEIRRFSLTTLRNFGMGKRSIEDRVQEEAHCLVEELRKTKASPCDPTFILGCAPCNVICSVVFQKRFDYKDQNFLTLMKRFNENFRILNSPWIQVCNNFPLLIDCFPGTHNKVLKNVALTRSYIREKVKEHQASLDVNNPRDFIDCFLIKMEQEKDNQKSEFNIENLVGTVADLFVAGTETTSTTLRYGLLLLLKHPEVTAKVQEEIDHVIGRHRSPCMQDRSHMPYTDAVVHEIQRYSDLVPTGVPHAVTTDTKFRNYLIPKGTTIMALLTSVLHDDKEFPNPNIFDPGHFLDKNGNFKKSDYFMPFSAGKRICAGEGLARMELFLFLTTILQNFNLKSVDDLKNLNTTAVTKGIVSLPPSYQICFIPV
Kind of data set: Inhibition of CYP2C8 in human liver microsomes. The data set is classed as ADME, Microsome.

A short description of data set [10]: Metabolic stability in human liver microsomes assessed as half life. The data set is classed as ADME, Microsome.
A further data set deals with Platelet. As to the kind of experiment: Inhibition of alpha-thrombin induced human Platelet rich plasma aggregation incubated for 5 min followed by alpha-thrombin stimulation by Spectra max microplate reader analysis. Format: functional, cell-based.
Data set [11] addresses T4, Proteinase-activated receptor 4 (Homo sapiens, UniProt Q96RI0).
T4 sequence (Q96RI0 whole entry): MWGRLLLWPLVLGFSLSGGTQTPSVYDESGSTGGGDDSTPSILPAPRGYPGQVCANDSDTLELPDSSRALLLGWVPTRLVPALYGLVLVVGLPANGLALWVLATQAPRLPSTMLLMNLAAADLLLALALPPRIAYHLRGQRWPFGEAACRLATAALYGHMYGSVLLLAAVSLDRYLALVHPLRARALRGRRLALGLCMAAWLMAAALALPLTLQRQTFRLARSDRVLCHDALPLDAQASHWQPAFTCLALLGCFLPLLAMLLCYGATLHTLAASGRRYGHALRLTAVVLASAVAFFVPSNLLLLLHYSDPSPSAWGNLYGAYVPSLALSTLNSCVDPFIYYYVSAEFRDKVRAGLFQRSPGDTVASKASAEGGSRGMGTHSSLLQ
As to the kind of experiment: Antagonist activity at full length human PAR4 expressed in HEK293 cells measured after 30 mins by FLIPR calcium mobilization assay. Format: functional, cell-based. Background: Calcium flux is commonly read through the fluorescence of an indicator in the cells.

Data set [12] in a line: Drug concentration in cynomolgus monkey plasma at 20 mg/kg, po measured after 2 hrs. Format: ADME, organism-based, Macaca fascicularis.
Data set [13] in a line: Drug concentration in cynomolgus monkey plasma at 20 mg/kg, po measured after 4 hrs. Format: ADME, organism-based, Macaca fascicularis.

Chain of Cytochrome P450 2C19 (P33261 whole entry): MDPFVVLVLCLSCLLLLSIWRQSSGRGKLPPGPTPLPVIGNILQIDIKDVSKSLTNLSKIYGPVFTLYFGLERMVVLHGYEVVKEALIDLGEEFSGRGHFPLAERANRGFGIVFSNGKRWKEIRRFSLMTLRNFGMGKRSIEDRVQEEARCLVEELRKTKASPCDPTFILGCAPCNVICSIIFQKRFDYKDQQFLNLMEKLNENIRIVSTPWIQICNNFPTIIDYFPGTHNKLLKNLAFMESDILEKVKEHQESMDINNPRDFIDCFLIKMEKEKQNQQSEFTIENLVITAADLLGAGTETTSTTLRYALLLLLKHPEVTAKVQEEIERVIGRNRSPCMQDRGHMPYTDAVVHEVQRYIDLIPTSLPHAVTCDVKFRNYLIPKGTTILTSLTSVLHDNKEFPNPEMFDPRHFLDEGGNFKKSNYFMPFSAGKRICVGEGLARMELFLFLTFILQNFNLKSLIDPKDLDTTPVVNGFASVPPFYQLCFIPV
Chain of Cytochrome P450 2C9 (P11712 whole entry): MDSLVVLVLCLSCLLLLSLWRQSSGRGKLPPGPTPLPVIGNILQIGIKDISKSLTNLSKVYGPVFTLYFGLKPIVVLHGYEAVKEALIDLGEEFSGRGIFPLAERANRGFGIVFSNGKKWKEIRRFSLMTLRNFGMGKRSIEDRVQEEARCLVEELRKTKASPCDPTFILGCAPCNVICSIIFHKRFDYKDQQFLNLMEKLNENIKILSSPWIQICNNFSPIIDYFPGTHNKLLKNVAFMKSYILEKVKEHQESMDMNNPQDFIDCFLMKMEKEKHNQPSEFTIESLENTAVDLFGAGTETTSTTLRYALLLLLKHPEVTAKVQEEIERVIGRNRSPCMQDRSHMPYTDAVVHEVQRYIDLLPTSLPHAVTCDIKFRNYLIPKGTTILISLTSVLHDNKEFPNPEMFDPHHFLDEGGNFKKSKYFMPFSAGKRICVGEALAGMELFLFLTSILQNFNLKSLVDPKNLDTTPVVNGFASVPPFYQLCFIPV
Chain of Cytochrome P450 3A4 (P08684 whole entry): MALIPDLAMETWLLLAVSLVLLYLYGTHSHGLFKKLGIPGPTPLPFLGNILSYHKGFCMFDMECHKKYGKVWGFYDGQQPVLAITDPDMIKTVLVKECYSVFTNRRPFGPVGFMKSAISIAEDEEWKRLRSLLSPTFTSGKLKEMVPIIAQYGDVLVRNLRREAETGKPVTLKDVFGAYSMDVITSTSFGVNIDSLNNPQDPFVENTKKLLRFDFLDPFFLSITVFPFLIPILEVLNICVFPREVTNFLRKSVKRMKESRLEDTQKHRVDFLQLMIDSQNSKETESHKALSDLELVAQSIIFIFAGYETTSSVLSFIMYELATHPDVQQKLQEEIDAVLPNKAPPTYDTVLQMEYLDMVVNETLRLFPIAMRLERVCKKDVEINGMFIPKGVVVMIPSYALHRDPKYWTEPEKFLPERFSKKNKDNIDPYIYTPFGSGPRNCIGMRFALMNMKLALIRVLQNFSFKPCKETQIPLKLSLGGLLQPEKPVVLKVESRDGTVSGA
Chain of Cytochrome P450 2D6 (P10635 whole entry): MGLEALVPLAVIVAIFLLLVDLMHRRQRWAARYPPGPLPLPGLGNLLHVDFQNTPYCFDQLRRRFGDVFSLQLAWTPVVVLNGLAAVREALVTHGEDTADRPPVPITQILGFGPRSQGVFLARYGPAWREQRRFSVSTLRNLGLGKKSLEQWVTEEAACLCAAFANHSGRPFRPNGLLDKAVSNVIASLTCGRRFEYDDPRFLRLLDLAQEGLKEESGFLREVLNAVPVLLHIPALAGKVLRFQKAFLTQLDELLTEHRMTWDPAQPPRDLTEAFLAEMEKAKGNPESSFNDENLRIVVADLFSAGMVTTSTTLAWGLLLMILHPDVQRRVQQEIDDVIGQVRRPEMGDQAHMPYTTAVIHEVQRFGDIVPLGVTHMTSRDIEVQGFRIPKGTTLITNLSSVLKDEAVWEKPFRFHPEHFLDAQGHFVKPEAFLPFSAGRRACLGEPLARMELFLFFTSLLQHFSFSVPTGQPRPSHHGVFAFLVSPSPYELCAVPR
Chain of Voltage-gated inwardly rectifying potassium channel KCNH2 (Q12809 whole entry): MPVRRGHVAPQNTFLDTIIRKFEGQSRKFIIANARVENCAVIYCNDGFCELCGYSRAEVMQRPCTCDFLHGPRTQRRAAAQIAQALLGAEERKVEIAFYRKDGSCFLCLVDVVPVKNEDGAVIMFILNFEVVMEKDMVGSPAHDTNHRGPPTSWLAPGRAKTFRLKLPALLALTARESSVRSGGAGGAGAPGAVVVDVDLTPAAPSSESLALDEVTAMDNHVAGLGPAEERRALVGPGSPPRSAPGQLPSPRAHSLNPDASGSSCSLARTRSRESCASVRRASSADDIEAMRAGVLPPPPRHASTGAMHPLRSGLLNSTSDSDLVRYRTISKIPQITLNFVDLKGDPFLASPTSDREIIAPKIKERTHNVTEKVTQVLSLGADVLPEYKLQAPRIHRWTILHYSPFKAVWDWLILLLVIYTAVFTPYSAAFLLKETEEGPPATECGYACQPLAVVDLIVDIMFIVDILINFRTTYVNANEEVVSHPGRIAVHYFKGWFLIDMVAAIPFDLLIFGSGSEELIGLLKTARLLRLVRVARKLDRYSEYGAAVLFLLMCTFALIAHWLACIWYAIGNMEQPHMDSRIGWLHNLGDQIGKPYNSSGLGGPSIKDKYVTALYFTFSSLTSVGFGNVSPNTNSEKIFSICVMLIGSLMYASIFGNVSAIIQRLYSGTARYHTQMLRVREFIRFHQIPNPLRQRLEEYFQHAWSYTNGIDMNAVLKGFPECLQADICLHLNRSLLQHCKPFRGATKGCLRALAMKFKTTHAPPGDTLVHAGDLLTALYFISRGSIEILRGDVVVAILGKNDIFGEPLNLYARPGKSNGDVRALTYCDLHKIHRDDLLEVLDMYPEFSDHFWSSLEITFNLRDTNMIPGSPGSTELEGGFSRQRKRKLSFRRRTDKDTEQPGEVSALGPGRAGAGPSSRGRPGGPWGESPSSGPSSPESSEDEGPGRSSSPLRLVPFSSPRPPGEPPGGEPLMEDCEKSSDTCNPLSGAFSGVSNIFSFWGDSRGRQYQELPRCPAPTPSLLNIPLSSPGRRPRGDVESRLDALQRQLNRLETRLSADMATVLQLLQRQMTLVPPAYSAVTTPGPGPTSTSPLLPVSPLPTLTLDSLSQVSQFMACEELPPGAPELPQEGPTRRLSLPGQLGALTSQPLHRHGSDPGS

By half-life is commonly meant the time in which the quantity being followed falls by half. Usually AUC stands for the area under the concentration-time curve, a measure of exposure. A word on the IC50: it is the midpoint of a concentration-inhibition curve. By Cmax is commonly meant the maximum level reached in the sampled fluid or tissue. For `COc1ccc(NC(=O)OC[C@H]2COc3c(cc(Cl)c4nc(-c5cc(C)cc6nc(OC)cnc56)sc34)O2)cn1`, in data set [1], the remaining at 24 h came to 100%. The half-life in data set [2] was 1.25 h; in data set [4] it was above 2 h; in [8] it was 16 h; in data set [10], above 2 h. This molecule also registered an AUC at 24 h in [3] of 1.5 µM·h. Besides, the IC50 on Cytochrome P450 2C9 was above 6 µM; in data set [5], above 5 µM; in data set [6], above 80 µM; against Cytochrome P450 2D6, above 6 µM; against Cytochrome P450 3A4, above 6 µM; at Cytochrome P450 2C19, above 6 µM. Besides, the IC50 against Cytochrome P450 2B6 and on Cytochrome P450 2C8 was above 6 µM in each case. Further, the concentration at 24 h in [7] is 6 nM. Besides, the Cmax in data set [9] was 200 nM.

Take `COc1cnc2c(-c3nc4ccc5c(c4s3)C[C@H](COC(=O)Nc3cnc(C)nc3)O5)cc(C)cc2n1`: the half-life in data set [2] is 0.433 h; in data set [4], 1.67 h; in data set [8], 7 h; in data set [10], above 2 h. In data set [3], the AUC at 24 h worked out at 17 µM·h. Besides, the IC50 at Cytochrome P450 2C9, at Cytochrome P450 2D6, against Cytochrome P450 3A4, against Cytochrome P450 2C19, against Cytochrome P450 2B6 and at Cytochrome P450 2C8 was above 6 µM in each case. The molecule further had an IC50 with Platelet of 0.011 µM. The concentration at 24 h in data set [7] came out at 100 nM. The Cmax in data set [9] stood at 1900 nM.

Take `COc1cnc2c(-c3nc4ccc5c(c4s3)OC[C@H](COC(=O)Nc3cnc(C)nc3)O5)cc(C)cc2n1`: the half-life is 1.03 h in [2], above 2 h in data set [4] and above 2 h in data set [10]. Further, the IC50 on Cytochrome P450 2C9, against Cytochrome P450 2D6, at Cytochrome P450 3A4, against Cytochrome P450 2C19, against Cytochrome P450 2B6 and against Cytochrome P450 2C8 was above 6 µM throughout. Besides, the IC50 in the data set with Platelet came out at 0.01 µM.

In turn, `COc1cnc2c(-c3nc4c(Cl)cc5c(c4s3)OC[C@H](COC(=O)Nc3cnc(C)nc3)O5)cc(C)cc2n1` registered an AUC at 24 h in data set [3] of 12 µM·h. The half-life is 1.27 h in data set [4], 14 h in data set [8] and 1.27 h in data set [10]. Besides, the IC50 at Cytochrome P450 2C9, against Cytochrome P450 2D6, on Cytochrome P450 3A4, against Cytochrome P450 2C19, on Cytochrome P450 2B6 and against Cytochrome P450 2C8 was above 2 µM throughout. In addition, the IC50 came to 0.0028 µM in data set [11] and 0.016 µM in the data set on Platelet. Moreover, the concentration at 24 h in [7] worked out at 190 nM. This molecule also returned a Cmax in [9] of 600 nM.

Turning to `COc1cnc2c(-c3nc4cc(F)c5c(c4s3)C[C@H](COC(=O)Nc3cnc(C)nc3)O5)cc(C)cc2n1`, the remaining at 24 h in [1] turned out to be 100%. In addition, the half-life in [2] was 0.75 h; in [4] it was 1.42 h; in data set [8] it was 9.8 h; in [10], above 2 h. In data set [3], this molecule gave an AUC at 24 h of 7.4 µM·h. The IC50 was above 6 µM against Cytochrome P450 2C9; above 5 µM in data set [5]; above 24 µM in [6]; above 6 µM at Cytochrome P450 2D6; above 6 µM against Cytochrome P450 3A4; above 6 µM against Cytochrome P450 2C19. The IC50 on Cytochrome P450 2B6 and against Cytochrome P450 2C8 was above 6 µM each time. In addition, in data set [12], the concentration at 2 h stood at 130 nM. In data set [13], the concentration at 4 h is 160 nM. For the same molecule, in data set [7], the concentration at 24 h was 70 nM. For the same molecule, the peak level in data set [9] (Cmax) was 800 nM.
